Source: ChEMBL document CHEMBL3885861, “Open TG-GATES”

Species: Rattus norvegicus
Test: Open TG-GATES - Regimen: Single
Type: toxicity, organism-based, Sprague-Dawley
Design: regimen Single, gender Male, age 6 weeks
Conditions: in vivo, po, route gavage; for APTT / Bas / Eos / Fbg / Hb / Ht / MCH / MCHC / MCV / Mono / PT / Plat / RBC / Ret / WBC: tissue Blood; for ALT / CRE / DBIL / GLC / IP / K / LDH / Na / PL / RALB / TBIL / TC / TG / TP / gamma-GTP / ALP: tissue Plasma
[1] = 200 mg/kg, 3 h, dose level Middle
[2] = 200 mg/kg, 6 h, dose level Middle
[3] = 200 mg/kg, 9 h, dose level Middle
[4] = 200 mg/kg, 24 h, dose level Middle
[5] = 600 mg/kg, 3 h, dose level High
[6] = 600 mg/kg, 6 h, dose level High
[7] = 600 mg/kg, 9 h, dose level High
[8] = 600 mg/kg, 24 h, dose level High

CCN(CC)C(=S)SSC(=S)N(CC)CC
TERMINAL_BW [1]: 213.2 g
APTT [1]: 21.8 s
Bas [1]: 0%
Eos [1]: 0.8%
Fbg [1]: 313.2 mg/dL
Hb [1]: 13.4 g/dL
Ht [1]: 41.1%
MCH [1]: 20.2 pg
MCHC [1]: 32.6%
MCV [1]: 62.1 fL
Mono [1]: 4.2%
PT [1]: 16.2 s
Plat [1]: 124 x10_4/uL
RBC [1]: 662.4 x10_4/ul
Ret [1]: 7.4%
WBC [1]: 77.1 x10_2/uL
ALT [1]: 40.6 IU/L
CRE [1]: 0.1 mg/dL
DBIL [1]: 0 mg/dL
GLC [1]: 181.2 mg/dL
IP [1]: 9.4 mg/dL
K [1]: 4.1 meq/L
LDH [1]: 215.4 IU/L
Na [1]: 142 meq/L
PL [1]: 147.8 mg/dL
RALB [1]: 3.2 g/dL
TBIL [1]: 0.004 mg/dL
TC [1]: 80.8 mg/dL
TG [1]: 84.2 mg/dL
TP [1]: 5.7 g/dL
gamma-GTP [1]: 1 IU/L
TERMINAL_BW [2]: 210.4 g
APTT [2]: 22.1 s
Bas [2]: 0%
Eos [2]: 0.4%
Fbg [2]: 299.4 mg/dL
Hb [2]: 13 g/dL
Ht [2]: 40.2%
MCH [2]: 20.2 pg
MCHC [2]: 32.3%
MCV [2]: 62.4 fL
Mono [2]: 2.2%
PT [2]: 15.9 s
Plat [2]: 123.4 x10_4/uL
RBC [2]: 644.6 x10_4/ul
Ret [2]: 7.2%
WBC [2]: 67.3 x10_2/uL
ALP [2]: 1309.6 IU/L
ALT [2]: 37.2 IU/L
CRE [2]: 0.1 mg/dL
DBIL [2]: 0.004 mg/dL
GLC [2]: 194 mg/dL
IP [2]: 9.6 mg/dL
K [2]: 4.1 meq/L
LDH [2]: 192 IU/L
Na [2]: 141 meq/L
PL [2]: 125.4 mg/dL
RALB [2]: 3.1 g/dL
TBIL [2]: 0.012 mg/dL
TC [2]: 73.2 mg/dL
TG [2]: 33 mg/dL
TP [2]: 5.4 g/dL
gamma-GTP [2]: 0.8 IU/L
TERMINAL_BW [3]: 213.7 g
APTT [3]: 22.8 s
Bas [3]: 0%
Eos [3]: 0.6%
Fbg [3]: 297 mg/dL
Hb [3]: 13.1 g/dL
Ht [3]: 40.6%
MCH [3]: 20 pg
MCHC [3]: 32.3%
MCV [3]: 61.8 fL
Mono [3]: 2%
PT [3]: 15.9 s
Plat [3]: 119.2 x10_4/uL
RBC [3]: 659 x10_4/ul
Ret [3]: 7.8%
WBC [3]: 81.1 x10_2/uL
ALP [3]: 1366 IU/L
ALT [3]: 34.6 IU/L
CRE [3]: 0.1 mg/dL
DBIL [3]: 0.012 mg/dL
GLC [3]: 195 mg/dL
IP [3]: 9.1 mg/dL
K [3]: 4.1 meq/L
LDH [3]: 141.2 IU/L
Na [3]: 140.6 meq/L
PL [3]: 137.8 mg/dL
RALB [3]: 3.2 g/dL
TBIL [3]: 0.02 mg/dL
TC [3]: 80.4 mg/dL
TG [3]: 46.8 mg/dL
TP [3]: 5.5 g/dL
gamma-GTP [3]: 0.8 IU/L
TERMINAL_BW [4]: 216 g
APTT [4]: 22 s
Bas [4]: 0%
Eos [4]: 0.4%
Fbg [4]: 301.2 mg/dL
Hb [4]: 13 g/dL
Ht [4]: 39.9%
MCH [4]: 20 pg
MCHC [4]: 32.5%
MCV [4]: 61.6 fL
Mono [4]: 2.4%
PT [4]: 16.6 s
Plat [4]: 111.9 x10_4/uL
RBC [4]: 649.2 x10_4/ul
Ret [4]: 6.6%
WBC [4]: 91.8 x10_2/uL
ALP [4]: 1198.6 IU/L
ALT [4]: 38.4 IU/L
CRE [4]: 0.1 mg/dL
DBIL [4]: 0.004 mg/dL
GLC [4]: 170 mg/dL
IP [4]: 7 mg/dL
K [4]: 4.1 meq/L
LDH [4]: 160.6 IU/L
Na [4]: 142.2 meq/L
PL [4]: 131.6 mg/dL
RALB [4]: 2.9 g/dL
TBIL [4]: 0.012 mg/dL
TC [4]: 80.8 mg/dL
TG [4]: 83 mg/dL
TP [4]: 5.3 g/dL
gamma-GTP [4]: 1.2 IU/L
TERMINAL_BW [5]: 218 g
APTT [5]: 21.3 s
Bas [5]: 0%
Eos [5]: 0.8%
Fbg [5]: 293.2 mg/dL
Hb [5]: 13.4 g/dL
Ht [5]: 41.4%
MCH [5]: 20 pg
MCHC [5]: 32.4%
MCV [5]: 61.6 fL
Mono [5]: 4.2%
PT [5]: 16.2 s
Plat [5]: 126.4 x10_4/uL
RBC [5]: 674 x10_4/ul
Ret [5]: 7.9%
WBC [5]: 82 x10_2/uL
ALP [5]: 1358.2 IU/L
ALT [5]: 45.8 IU/L
CRE [5]: 0.1 mg/dL
DBIL [5]: 0.01 mg/dL
GLC [5]: 194.8 mg/dL
IP [5]: 10.1 mg/dL
K [5]: 4 meq/L
LDH [5]: 250.2 IU/L
Na [5]: 141.4 meq/L
PL [5]: 132 mg/dL
RALB [5]: 3.1 g/dL
TBIL [5]: 0.008 mg/dL
TC [5]: 76.6 mg/dL
TG [5]: 57.8 mg/dL
TP [5]: 5.6 g/dL
gamma-GTP [5]: 1 IU/L
TERMINAL_BW [6]: 211.8 g
APTT [6]: 23.9 s
Bas [6]: 0%
Eos [6]: 0.8%
Fbg [6]: 304 mg/dL
Hb [6]: 13.7 g/dL
Ht [6]: 42.2%
MCH [6]: 20.5 pg
MCHC [6]: 32.4%
MCV [6]: 63.2 fL
Mono [6]: 2.4%
PT [6]: 16.3 s
Plat [6]: 117.9 x10_4/uL
RBC [6]: 668.2 x10_4/ul
Ret [6]: 7.1%
WBC [6]: 73.5 x10_2/uL
ALP [6]: 1429.6 IU/L
ALT [6]: 37.6 IU/L
CRE [6]: 0.1 mg/dL
DBIL [6]: 0.01 mg/dL
GLC [6]: 207.2 mg/dL
IP [6]: 9.7 mg/dL
K [6]: 4.3 meq/L
LDH [6]: 182.6 IU/L
Na [6]: 140.6 meq/L
PL [6]: 134.2 mg/dL
RALB [6]: 3.1 g/dL
TBIL [6]: 0.014 mg/dL
TC [6]: 80.8 mg/dL
TG [6]: 23.4 mg/dL
TP [6]: 5.5 g/dL
gamma-GTP [6]: 1.2 IU/L
TERMINAL_BW [7]: 206.5 g
APTT [7]: 23.7 s
Bas [7]: 0.2%
Eos [7]: 0.6%
Fbg [7]: 299 mg/dL
Hb [7]: 13.3 g/dL
Ht [7]: 40.6%
MCH [7]: 20.7 pg
MCHC [7]: 32.8%
MCV [7]: 63.2 fL
Mono [7]: 2.2%
PT [7]: 16.2 s
Plat [7]: 119.4 x10_4/uL
RBC [7]: 642.4 x10_4/ul
Ret [7]: 7.3%
WBC [7]: 77.1 x10_2/uL
ALP [7]: 1243.4 IU/L
ALT [7]: 36.6 IU/L
CRE [7]: 0.1 mg/dL
DBIL [7]: 0.014 mg/dL
GLC [7]: 200.4 mg/dL
IP [7]: 8.9 mg/dL
K [7]: 4.2 meq/L
LDH [7]: 184 IU/L
Na [7]: 140.6 meq/L
PL [7]: 136 mg/dL
RALB [7]: 3.2 g/dL
TBIL [7]: 0.02 mg/dL
TC [7]: 79.2 mg/dL
TG [7]: 57.4 mg/dL
TP [7]: 5.6 g/dL
gamma-GTP [7]: 1 IU/L
TERMINAL_BW [8]: 222.1 g
APTT [8]: 21.6 s
Bas [8]: 0%
Eos [8]: 0.8%
Fbg [8]: 290.2 mg/dL
Hb [8]: 12.7 g/dL
Ht [8]: 39%
MCH [8]: 19.5 pg
MCHC [8]: 32.4%
MCV [8]: 60.1 fL
Mono [8]: 2.2%
PT [8]: 16 s
Plat [8]: 115.3 x10_4/uL
RBC [8]: 649.8 x10_4/ul
Ret [8]: 6.8%
WBC [8]: 94.6 x10_2/uL
ALP [8]: 1144.8 IU/L
ALT [8]: 40.2 IU/L
CRE [8]: 0.1 mg/dL
DBIL [8]: 0.014 mg/dL
GLC [8]: 177.8 mg/dL
IP [8]: 7.7 mg/dL
K [8]: 3.9 meq/L
LDH [8]: 183.4 IU/L
Na [8]: 142.4 meq/L
PL [8]: 149.4 mg/dL
RALB [8]: 3.1 g/dL
TBIL [8]: 0.024 mg/dL
TC [8]: 91 mg/dL
TG [8]: 92.6 mg/dL
TP [8]: 5.5 g/dL
gamma-GTP [8]: 1 IU/L
